Measurements reported in ChEMBL document CHEMBL3044649, “Zn(OTf)2-catalyzed three component, one-pot cyclocondensation reaction of some new octahydroquinazolinone derivatives and access their bio-potential” (2012).
Values after ≈ are worked out from the molar mass of the structure shown.

Key:
Type in all cases: functional
Salmonella typhi = assay: Antimicrobial activity against Salmonella enterica subsp. enterica serovar Typhi MTCC 98 after 24 to 48 hr by broth microdilution method
Clostridium tetani = assay: Antimicrobial activity against Clostridium tetani MTCC 449 after 24 to 48 hr by broth microdilution method
Streptococcus pneumoniae = assay: Antimicrobial activity against Streptococcus pneumoniae MTCC 1936 after 24 to 48 hr by broth microdilution method
Escherichia coli = assay: Antimicrobial activity against Escherichia coli MTCC 443 after 24 to 48 hr by broth microdilution method
Bacillus subtilis = assay: Antimicrobial activity against Bacillus subtilis MTCC 441 after 24 to 48 hr by broth microdilution method
Vibrio cholerae = assay: Antimicrobial activity against Vibrio cholerae MTCC 3906 after 24 to 48 hr by broth microdilution method
Aspergillus fumigatus = assay: Antimicrobial activity against Aspergillus fumigatus MTCC 3008 after 24 to 48 hr by broth microdilution method
Candida albicans = assay: Antimicrobial activity against Candida albicans MTCC 227 after 24 to 48 hr by broth microdilution method

Row | Molecule | MIC (Salmonella typhi) [µg/mL] | MIC (Clostridium tetani) [µg/mL] | MIC (Streptococcus pneumoniae) [µg/mL] | MIC (Escherichia coli) [µg/mL] | MIC (Bacillus subtilis) [µg/mL] | MIC (Vibrio cholerae) [µg/mL] | MIC (Aspergillus fumigatus) [µg/mL] | MIC (Candida albicans) [µg/mL]
1 | CCn1cc(C(=O)O)c(=O)c2cc(F)c(N3CCNCC3)cc21 [NORFLOXACIN] | 10 (≈ 31.3 µM) | 50 (≈ 157 µM) | 10 (≈ 31.3 µM) | 10 (≈ 31.3 µM) | 100 (≈ 313 µM) | 10 (≈ 31.3 µM) | – | –
2 | Cc1ccc2[nH]c(=O)c(C3NC(=S)N(c4ccccc4)C4=C3C(=O)CC(C)(C)C4)cc2c1 (centres undefined) | 500 (≈ 1130 µM) | 250 (≈ 564 µM) | 1000 (≈ 2250 µM) | 1000 (≈ 2250 µM) | 250 (≈ 564 µM) | 250 (≈ 564 µM) | 500 (≈ 1130 µM) | 1000 (≈ 2250 µM)
3 | CC1(C)CC(=O)C2=C(C1)NC(=S)NC2c1cc2cc(Cl)ccc2[nH]c1=O (centres undefined) | 25 (≈ 64.5 µM) | 250 (≈ 645 µM) | 50 (≈ 129 µM) | 125 (≈ 322 µM) | 50 (≈ 129 µM) | 50 (≈ 129 µM) | 1000 (≈ 2580 µM) | 500 (≈ 1290 µM)
4 | COC1=CC(=O)C[C@@H](C)[C@]12Oc1c(Cl)c(OC)cc(OC)c1C2=O [GRISEOFULVIN] | – | – | – | – | – | – | 100 (≈ 283 µM) | 500 (≈ 1420 µM)
5 | COc1ccc2[nH]c(=O)c(C3NC(=O)NC4=C3C(=O)CC(C)(C)C4)cc2c1 (centres undefined) | 150 (≈ 408 µM) | 100 (≈ 272 µM) | 250 (≈ 680 µM) | 100 (≈ 272 µM) | 250 (≈ 680 µM) | 50 (≈ 136 µM) | 1000 (≈ 2720 µM) | 500 (≈ 1360 µM)
6 | COc1ccc2[nH]c(=O)c(C3NC(=O)NC4=C3C(=O)CCC4)cc2c1 (centres undefined) | 250 (≈ 737 µM) | 500 (≈ 1470 µM) | 250 (≈ 737 µM) | 100 (≈ 295 µM) | 250 (≈ 737 µM) | 500 (≈ 1470 µM) | 1000 (≈ 2950 µM) | 500 (≈ 1470 µM)
7 | O=C1NC2=C(C(=O)CCC2)C(c2cc3ccccc3[nH]c2=S)N1 (centres undefined) | 200 (≈ 615 µM) | 500 (≈ 1540 µM) | 500 (≈ 1540 µM) | 500 (≈ 1540 µM) | 500 (≈ 1540 µM) | 500 (≈ 1540 µM) | 500 (≈ 1540 µM) | 1000 (≈ 3070 µM)
8 | COc1ccc2[nH]c(=O)c(C3NC(=S)NC4=C3C(=O)CCC4)cc2c1 (centres undefined) | 125 (≈ 352 µM) | 200 (≈ 563 µM) | 200 (≈ 563 µM) | 50 (≈ 141 µM) | 200 (≈ 563 µM) | 200 (≈ 563 µM) | > 1000 | 500 (≈ 1410 µM)
9 | NYSTATIN | – | – | – | – | – | – | 100 | 100
10 | O=C1CCCC2=C1C(c1cc3ccccc3[nH]c1=O)NC(=S)N2 (centres undefined) | 500 (≈ 1540 µM) | 200 (≈ 615 µM) | 200 (≈ 615 µM) | 100 (≈ 307 µM) | 200 (≈ 615 µM) | 500 (≈ 1540 µM) | 200 (≈ 615 µM) | 100 (≈ 307 µM)
11 | GENTAMICIN | 5 | 5 | 0.5 | 0.05 | 1 | 5 | – | –
12 | O=C(O)c1cn(C2CC2)c2cc(N3CCNCC3)c(F)cc2c1=O [CIPROFLOXACIN] | 25 (≈ 75.4 µM) | – | 50 (≈ 151 µM) | 25 (≈ 75.4 µM) | – | 25 (≈ 75.4 µM) | – | –
13 | O=C1CCCC2=C1C(c1cc3ccccc3[nH]c1=O)NC(=S)N2c1ccccc1 (centres undefined) | 100 (≈ 249 µM) | 100 (≈ 249 µM) | 150 (≈ 374 µM) | 150 (≈ 374 µM) | 250 (≈ 623 µM) | 200 (≈ 498 µM) | 250 (≈ 623 µM) | 500 (≈ 1250 µM)
14 | CC1(C)CC(=O)C2=C(C1)NC(=S)NC2c1cc2ccccc2[nH]c1=S (centres undefined) | 100 (≈ 271 µM) | 200 (≈ 541 µM) | 500 (≈ 1350 µM) | 100 (≈ 271 µM) | 250 (≈ 677 µM) | 250 (≈ 677 µM) | 500 (≈ 1350 µM) | 250 (≈ 677 µM)
15 | O=C1CCCC2=C1C(c1cc3ccccc3[nH]c1=S)NC(=S)N2 (centres undefined) | 200 (≈ 586 µM) | 250 (≈ 732 µM) | 500 (≈ 1460 µM) | 250 (≈ 732 µM) | 250 (≈ 732 µM) | 250 (≈ 732 µM) | > 1000 | 250 (≈ 732 µM)
16 | CC1(C)CC(=O)C2=C(C1)NC(=O)NC2c1cc2ccccc2[nH]c1=S (centres undefined) | 500 (≈ 1410 µM) | 500 (≈ 1410 µM) | 250 (≈ 707 µM) | 500 (≈ 1410 µM) | 500 (≈ 1410 µM) | 200 (≈ 566 µM) | 100 (≈ 283 µM) | 100 (≈ 283 µM)

Row | Molecule | MIC (Salmonella typhi) [µg/mL] | MIC (Clostridium tetani) [µg/mL] | MIC (Streptococcus pneumoniae) [µg/mL] | MIC (Escherichia coli) [µg/mL] | MIC (Bacillus subtilis) [µg/mL] | MIC (Vibrio cholerae) [µg/mL] | MIC (Aspergillus fumigatus) [µg/mL] | MIC (Candida albicans) [µg/mL]
17 | Cc1ccc2[nH]c(=O)c(C3NC(=S)NC4=C3C(=O)CC(C)(C)C4)cc2c1 (centres undefined) | 150 (≈ 408 µM) | 100 (≈ 272 µM) | 100 (≈ 272 µM) | 250 (≈ 680 µM) | 100 (≈ 272 µM) | 100 (≈ 272 µM) | > 1000 | > 1000
18 | Cc1ccc2[nH]c(=O)c(C3NC(=O)NC4=C3C(=O)CCC4)cc2c1 (centres undefined) | 500 (≈ 1550 µM) | 200 (≈ 619 µM) | 100 (≈ 309 µM) | 500 (≈ 1550 µM) | 500 (≈ 1550 µM) | 200 (≈ 619 µM) | 1000 (≈ 3090 µM) | 1000 (≈ 3090 µM)
19 | COc1ccc2[nH]c(=O)c(C3NC(=S)NC4=C3C(=O)CC(C)(C)C4)cc2c1 (centres undefined) | 250 (≈ 652 µM) | 200 (≈ 522 µM) | 200 (≈ 522 µM) | 500 (≈ 1300 µM) | 200 (≈ 522 µM) | 200 (≈ 522 µM) | > 1000 | 500 (≈ 1300 µM)
20 | CC1(C)CC(=O)C2=C(C1)NC(=S)NC2c1cc2ccccc2[nH]c1=O (centres undefined) | 150 (≈ 424 µM) | 500 (≈ 1410 µM) | 500 (≈ 1410 µM) | 125 (≈ 354 µM) | 500 (≈ 1410 µM) | 500 (≈ 1410 µM) | 500 (≈ 1410 µM) | 500 (≈ 1410 µM)
21 | O=C(N[C@H](CO)[C@H](O)c1ccc([N+](=O)[O-])cc1)C(Cl)Cl [CHLORAMPHENICOL] | 50 (≈ 155 µM) | 50 (≈ 155 µM) | 50 (≈ 155 µM) | 50 (≈ 155 µM) | 50 (≈ 155 µM) | 50 (≈ 155 µM) | – | –
22 | CC1(C)CC(=O)C2=C(C1)N(c1ccccc1)C(=S)NC2c1cc2ccccc2[nH]c1=O (centres undefined) | 200 (≈ 466 µM) | 250 (≈ 582 µM) | 500 (≈ 1160 µM) | 250 (≈ 582 µM) | 500 (≈ 1160 µM) | 500 (≈ 1160 µM) | 1000 (≈ 2330 µM) | 250 (≈ 582 µM)
23 | Cc1ccc2[nH]c(=O)c(C3NC(=S)NC4=C3C(=O)CCC4)cc2c1 (centres undefined) | 500 (≈ 1470 µM) | 500 (≈ 1470 µM) | 500 (≈ 1470 µM) | 500 (≈ 1470 µM) | 500 (≈ 1470 µM) | 500 (≈ 1470 µM) | 500 (≈ 1470 µM) | 200 (≈ 589 µM)
24 | O=C1NC2=C(C(=O)CCC2)C(c2cc3cc(Cl)ccc3[nH]c2=O)N1 (centres undefined) | 250 (≈ 727 µM) | 500 (≈ 1450 µM) | 500 (≈ 1450 µM) | 200 (≈ 582 µM) | 250 (≈ 727 µM) | 100 (≈ 291 µM) | 1000 (≈ 2910 µM) | 1000 (≈ 2910 µM)
25 | CC1(C)S[C@@H]2[C@H](NC(=O)[C@H](N)c3ccccc3)C(=O)N2[C@H]1C(=O)O [AMPICILLIN] | 100 (≈ 286 µM) | 250 (≈ 715 µM) | 100 (≈ 286 µM) | 100 (≈ 286 µM) | 250 (≈ 715 µM) | 100 (≈ 286 µM) | – | –
26 | Cc1ccc2[nH]c(=O)c(C3NC(=O)NC4=C3C(=O)CC(C)(C)C4)cc2c1 (centres undefined) | 250 (≈ 711 µM) | 100 (≈ 285 µM) | 100 (≈ 285 µM) | 100 (≈ 285 µM) | 100 (≈ 285 µM) | 1000 (≈ 2850 µM) | 1000 (≈ 2850 µM) | 500 (≈ 1420 µM)
27 | O=C1CCCC2=C1C(c1cc3cc(Cl)ccc3[nH]c1=O)NC(=S)N2 (centres undefined) | 200 (≈ 556 µM) | 250 (≈ 695 µM) | 250 (≈ 695 µM) | 100 (≈ 278 µM) | 250 (≈ 695 µM) | 250 (≈ 695 µM) | 1000 (≈ 2780 µM) | 500 (≈ 1390 µM)
28 | Cc1ccc2[nH]c(=O)c(C3NC(=S)N(c4ccccc4)C4=C3C(=O)CCC4)cc2c1 (centres undefined) | 250 (≈ 602 µM) | 250 (≈ 602 µM) | 500 (≈ 1200 µM) | 500 (≈ 1200 µM) | 500 (≈ 1200 µM) | 500 (≈ 1200 µM) | 500 (≈ 1200 µM) | 1000 (≈ 2410 µM)
29 | O=C1NC2=C(C(=O)CCC2)C(c2cc3ccccc3[nH]c2=O)N1 (centres undefined) | 250 (≈ 808 µM) | 100 (≈ 323 µM) | 100 (≈ 323 µM) | 250 (≈ 808 µM) | 200 (≈ 647 µM) | 500 (≈ 1620 µM) | > 1000 | 500 (≈ 1620 µM)
30 | CC1(C)CC(=O)C2=C(C1)NC(=O)NC2c1cc2ccccc2[nH]c1=O (centres undefined) | 250 (≈ 741 µM) | 200 (≈ 593 µM) | 250 (≈ 741 µM) | 100 (≈ 296 µM) | 500 (≈ 1480 µM) | 250 (≈ 741 µM) | 500 (≈ 1480 µM) | 500 (≈ 1480 µM)
31 | CC1(C)CC(=O)C2=C(C1)NC(=O)NC2c1cc2cc(Cl)ccc2[nH]c1=O (centres undefined) | 200 (≈ 538 µM) | 100 (≈ 269 µM) | 500 (≈ 1340 µM) | 100 (≈ 269 µM) | 200 (≈ 538 µM) | 500 (≈ 1340 µM) | > 1000 | 500 (≈ 1340 µM)
